According to patent publication US7745402B2, “Method of treating pancreatitis” (Lundbeck Inc., priority 2005, dated 2010):

Legend:
macrophages = assay: In vivo macrophage homing to the pancreas, bioluminescence imaging; set-up: species or system FVB/n mice; conditions: single dose of hemin 24 h prior to cell transfer
Protocol: FIG. 4: Effect of hemin on in vivo macrophage homing to the pancreas using bioluminescence imaging. (A) Experimental scheme of cell transfer. Hemin (H) was injected 3× intraperitoneally into luciferase-overexpressing (+/+) mice, then peritoneal cells were harvested and macrophages were selected using anti-Mac-1 magnetic beads. Luciferase/Mac-1 double-positive cells were transferred intraperitoneally to wild-type (luciferase −/−) mice that were preinjected with one dose of H or vehicle (V) 24 h prior to the transfer. This hemin injection is necessary to induce pancreatic chemokines (FIG. 3C). (B) Live images of recipient intact anesthetized mice were taken 5 min (a) or 24 h (b) after cell transfer. Livers and pancreata were removed 24 h after the transfer followed by imaging (c). The signal intensity scale bar is shown below each image. (C) A duplicate of the pancreata shown in image c of panel B (from recipients receiving donor cells from H-injected animals) was double-stained with antibodies to luciferase and F4/80. […] Bar in panel c=50 μm.
The present invention offers a novel approach of immune-mediated therapy via the unanticipated effect of hemin on leukocyte recruitment to the pancreas. Based on a mouse animal model of pancreatitis, the therapeutic approach of the present invention has applicability to other mammalian, particularly human, pancreatitis. […]

HO-1 = HO-1 immunoblot of mouse tissue/cell homogenates after hemin; assay type: in vivo, mice; conditions: for HO-1 induction: hemin 3× during 7 d
Protocol: (A, B) Total tissue homogenates were obtained from pancreata of caerulein-injected or choline deficient diet (CDD)-fed mice. Two age and sex-matched mice were used for each time point. Homogenates were tested by blotting using antibodies to HO-1 or HO-2. (C) Mice (3 mice/condition) were given hemin by intraperitoneal injection (4× during one week, or 8× during two weeks). Two “control” mice were injected with vehicle alone. Pancreatic homogenates were then obtained and blotted with anti-HO-1/2. (D-F) Mice were injected with saline, hemin, or vehicle (8 mice/group)3×(arrows) followed by feeding with CDD for 3 d then harvesting of the pancreata. HO-1 and HO-2 were analyzed by blotting of pancreatic homogenates (3 mice/group). […] A representative hematoxylin and eosin staining of pancreata from mice that survived CDD feeding is shown (scale bar=50 μM).
FIG. 8: HO-1 expression and hemin-mediated induction in mouse tissues and cells. Mice were injected 3× during 7d with vehicle or hemin (2 mice/group) followed by harvesting of the indicated organs and cells then preparation of total tissue/cell homogenates. Protein concentrations of the homogenates were measured followed by SDS-PAGE separation (40 μg of protein/lane) then blotting using anti-HO-1 antibodies.
Hemin, vehicle and antibodies. […]
Animal procedures. […] Immunofluorescence staining was performed as described (29) and images were analyzed using confocal microscopy. Total tissue lysates were prepared by homogenization in Laemmli sample buffer and analyzed by SDS-PAGE followed by transfer to membranes for blotting and protein visualization by enhanced chemiluminescence. Trypsin activity was determined using a fluorimetric assay and the substrate Boc-Gln-Ala-Arg-MCA (Peptides International Inc.; Louisville, Ky.), and comparison to a standard curve generated with purified trypsin as described. […] Lung injury after caerulein administration was assessed as previously described, based on neutrophilic infiltration, pulmonary edema, alveolar distension and collapse. […]

With Hemin the “macrophage recruitment to the pancreas after hemin priming of recipients” value (macrophages) was “stimulates pancreatic chemokine production and triggers migration of macrophages to the pancreas”, the HO-1 induction (HO-1; bone marrow, spleen, brain) was “not in bone marrow, spleen or brain” and the “level of HO-1 induction on excessive dosing” value (HO-1; pancreas, 8× during two weeks vs 4× during one week (FIG. 1C)) was “excessive dosing decreases the level of HO-1 induction”. For the same substance, the HO-1 induction (HO-1; peritoneal cells, liver, pancreas and colon) was “induction of HO-1 in peritoneal cells, liver, pancreas and colon (most prominent change being in pancreas)”.
